According to patent US20230085307A1, “PYRIDAZINONE COMPOUND AND HERBICIDE” (NISSAN CHEMICAL CORPORATION, priority 2019, published 2023):

Experiments:
[1] = system: late watergrass; test: Test Example 2: herbicidal activity, application during weed generation under submerged conditions (Table 17, symbol A); assay type: in vivo, late watergrass (Echinochloa oryzicola); settings: application during weed generation, submerged conditions
Summary of the method: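 Mixed weed seedlings in alluvial soil under a 4 cm water layer, greenhouse-grown at 25–30° C. Compound given as a diluted emulsion into the floodwater at the 1–2 leaf stage; response graded after three weeks.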

[2] = system: barnyard grass; test: Test Example 3: herbicidal effect by foliage application, Wagner pot (Table 18, symbol H); assay type: in vivo, barnyard grass (Echinochloa crus-galli)
Summary of the method: (§1)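 Plants were sown in alluvial soil held under 0.1–0.5 cm standing water and grown 14 days in a greenhouse at 25–30 °C. An emulsifiable formulation, water-diluted to the set dose, was then sprayed onto the foliage, and effects were scored three weeks later using previously defined criteria.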

[3] = system: southern crabgrass; test: Test Example 4: herbicidal effect by soil treatment (Table 19, symbol F); assay type: in vivo, southern crabgrass (Digitaria ciliaris)
Summary of the method: (§2)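 Soil-surface application: an emulsion agent diluted with water to the predetermined dose is sprayed uniformly over seeds lying under roughly 1.5 cm of sterilized diluvial soil. Boxes stay in a greenhouse at 25° C. to 30° C. Three weeks later, each species is graded on previously defined criteria.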

[4] = system: lambsquarters; test: Test Example 5: herbicidal effect by foliage application, plastic box (Table 20, symbol O); assay type: in vivo, lambsquarters (Chenopodium album); settings: foliage application, 3 weeks after application
Summary of the method: (§3)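 Sow seeds spot-wise in sterilized diluvial soil; cover with ~1.5 cm soil. Grow 14 days in greenhouse, 25° C. to 30° C. Spray foliage with emulsion diluted to predetermined amount. Rate effect after 3 weeks.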

[5] = system: velvetleaf; test: Test Example 4: herbicidal effect by soil treatment (Table 19, symbol M); assay type: in vivo, velvetleaf (Abutilon theophrasti)
Summary of the method: as §2

[6] = system: late watergrass; test: Test Example 1: herbicidal activity, application before weed generation under submerged conditions (Table 16, symbol A); assay type: in vivo, late watergrass (Echinochloa oryzicola)
Summary of the method: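 Submerged Wagner pots (alluvial soil, 4 cm water) sown with weed seeds and planted with 2.5-leaf rice seedlings; emulsifiable concentrate diluted in water applied to water surface on sowing day. Held in greenhouse at 25-30 °C; injury scored 0-5 by herbicidal rate after three weeks.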

[7] = system: blackgrass; test: Test Example 4: herbicidal effect by soil treatment (Table 19, symbol J); assay type: in vivo, blackgrass (Alopecurus myosuroides)
Summary of the method: as §2

[8] = system: lambsquarters; test: Test Example 4: herbicidal effect by soil treatment (Table 19, symbol O); assay type: in vivo, lambsquarters (Chenopodium album)
Summary of the method: as §2

[9] = system: Italian ryegrass; test: Test Example 4: herbicidal effect by soil treatment (Table 19, symbol K); assay type: in vivo, Italian ryegrass (Lolium multiflorum)
Summary of the method: as §2

[10] = system: blackgrass; test: Test Example 5: herbicidal effect by foliage application, plastic box (Table 20, symbol J); assay type: in vivo, blackgrass (Alopecurus myosuroides); settings: foliage application, 3 weeks after application
Summary of the method: as §3

[11] = system: windgrass; test: Test Example 4: herbicidal effect by soil treatment (Table 19, symbol L); assay type: in vivo, windgrass (Apera spica-venti)
Summary of the method: as §2

[12] = system: Chinese sprangletop; test: Test Example 3: herbicidal effect by foliage application, Wagner pot (Table 18, symbol D); assay type: in vivo, chinese sprangletop (Leptochloa chinensis)
Summary of the method: as §1

[13] = system: Italian ryegrass; test: Test Example 5: herbicidal effect by foliage application, plastic box (Table 20, symbol K); assay type: in vivo, Italian ryegrass (Lolium multiflorum); settings: foliage application, 3 weeks after application
Summary of the method: as §3

[14] = system: velvetleaf; test: Test Example 5: herbicidal effect by foliage application, plastic box (Table 20, symbol M); assay type: in vivo, velvetleaf (Abutilon theophrasti); settings: foliage application, 3 weeks after application
Summary of the method: as §3

[15] = system: persian speedwell; test: Test Example 4: herbicidal effect by soil treatment (Table 19, symbol R); assay type: in vivo, Persian speedwell (Veronica persica)
Summary of the method: as §2

Cc1ccc(-c2sc3ccc(F)cc3c2-c2c(O)c(C)nn(C)c2=O)cc1 [2-012]
herbicidal effect rating, A: late watergrass ([1]; AAH 320 g/ha): 3 (Herbicidal rate of 40% or more and less than 70%)
herbicidal effect on H (barnyard grass), rating 0-5 ([2]; 320 g/ha): 5 (Herbicidal rate of 90% or more (almost completely withered))
herbicidal effect rating, F: southern crabgrass ([3]; 320 g/ha): 5 (Herbicidal rate of 90% or more (almost completely withered))
effect on lambsquarters (O) ([4]; 320 g/ha): 4 (Herbicidal rate of 70% or more and less than 90%)
herbicidal effect rating, M: velvetleaf ([5]; 320 g/ha): 4 (Herbicidal rate of 70% or more and less than 90%)
Herbicidal effect on A: late watergrass (grade 0-5) ([6]; 320 g/ha applied herbicide): 3 (Herbicidal rate of 40% or more and less than 70%)
herbicidal effect rating, J: blackgrass ([7]; 320 g/ha): 0 (Herbicidal rate of 5% or less (almost no effect))
herbicidal effect rating, O: lambsquarters ([8]; 320 g/ha): 5 (Herbicidal rate of 90% or more (almost completely withered))
herbicidal effect rating, K: Italian ryegrass ([9]; 320 g/ha): 4 (Herbicidal rate of 70% or more and less than 90%)
effect on blackgrass (J) ([10]; 320 g/ha): 4 (Herbicidal rate of 70% or more and less than 90%)
herbicidal effect rating, L: windgrass ([11]; 320 g/ha): 0 (Herbicidal rate of 5% or less (almost no effect))
herbicidal effect on D (Chinese sprangletop), rating 0-5 ([12]; 320 g/ha): 5 (Herbicidal rate of 90% or more (almost completely withered))
effect on Italian ryegrass (K) ([13]; 320 g/ha): 4 (Herbicidal rate of 70% or more and less than 90%)
effect on velvetleaf (M) ([14]; 320 g/ha): 5 (Herbicidal rate of 90% or more (almost completely withered))
herbicidal effect rating, R: persian speedwell ([15]; 320 g/ha): 5 (Herbicidal rate of 90% or more (almost completely withered))

CCCC(=O)Oc1c(C)nn(C)c(=O)c1-c1c(-c2ccc(C)cc2)sc2ccc(F)cc12 [2-013]
herbicidal effect rating, A: late watergrass ([1]; AAH 320 g/ha): 4 (Herbicidal rate of 70% or more and less than 90%)
herbicidal effect on H (barnyard grass), rating 0-5 ([2]; 320 g/ha): 5 (Herbicidal rate of 90% or more (almost completely withered))
herbicidal effect rating, F: southern crabgrass ([3]; 320 g/ha): 5 (Herbicidal rate of 90% or more (almost completely withered))
effect on lambsquarters (O) ([4]; 320 g/ha): 4 (Herbicidal rate of 70% or more and less than 90%)
herbicidal effect rating, M: velvetleaf ([5]; 320 g/ha): 3 (Herbicidal rate of 40% or more and less than 70%)
Herbicidal effect on A: late watergrass (grade 0-5) ([6]; 320 g/ha applied herbicide): 3 (Herbicidal rate of 40% or more and less than 70%)
herbicidal effect rating, J: blackgrass ([7]; 320 g/ha): 3 (Herbicidal rate of 40% or more and less than 70%)
herbicidal effect rating, O: lambsquarters ([8]; 320 g/ha): 5 (Herbicidal rate of 90% or more (almost completely withered))
herbicidal effect rating, K: Italian ryegrass ([9]; 320 g/ha): 4 (Herbicidal rate of 70% or more and less than 90%)
effect on blackgrass (J) ([10]; 320 g/ha): 1 (Herbicidal rate of 5% or more and less than 20%)
herbicidal effect rating, L: windgrass ([11]; 320 g/ha): 0 (Herbicidal rate of 5% or less (almost no effect))
herbicidal effect on D (Chinese sprangletop), rating 0-5 ([12]; 320 g/ha): 5 (Herbicidal rate of 90% or more (almost completely withered))
effect on Italian ryegrass (K) ([13]; 320 g/ha): 4 (Herbicidal rate of 70% or more and less than 90%)
effect on velvetleaf (M) ([14]; 320 g/ha): 5 (Herbicidal rate of 90% or more (almost completely withered))
herbicidal effect rating, R: persian speedwell ([15]; 320 g/ha): 4 (Herbicidal rate of 70% or more and less than 90%)

COc1ccc(-c2sc3ccc(F)cc3c2-c2c(O)c(C)nn(C)c2=O)cc1 [2-026]
herbicidal effect rating, A: late watergrass ([1]; AAH 320 g/ha): 1 (Herbicidal rate of 5% or more and less than 20%)
herbicidal effect on H (barnyard grass), rating 0-5 ([2]; 320 g/ha): 5 (Herbicidal rate of 90% or more (almost completely withered))
herbicidal effect rating, F: southern crabgrass ([3]; 320 g/ha): 4 (Herbicidal rate of 70% or more and less than 90%)
effect on lambsquarters (O) ([4]; 320 g/ha): 4 (Herbicidal rate of 70% or more and less than 90%)
herbicidal effect rating, M: velvetleaf ([5]; 320 g/ha): 5 (Herbicidal rate of 90% or more (almost completely withered))
Herbicidal effect on A: late watergrass (grade 0-5) ([6]; 320 g/ha applied herbicide): 3 (Herbicidal rate of 40% or more and less than 70%)
herbicidal effect rating, J: blackgrass ([7]; 320 g/ha): 3 (Herbicidal rate of 40% or more and less than 70%)
herbicidal effect rating, O: lambsquarters ([8]; 320 g/ha): 5 (Herbicidal rate of 90% or more (almost completely withered))
herbicidal effect rating, K: Italian ryegrass ([9]; 320 g/ha): 3 (Herbicidal rate of 40% or more and less than 70%)
effect on blackgrass (J) ([10]; 320 g/ha): 4 (Herbicidal rate of 70% or more and less than 90%)
herbicidal effect rating, L: windgrass ([11]; 320 g/ha): 1 (Herbicidal rate of 5% or more and less than 20%)
herbicidal effect on D (Chinese sprangletop), rating 0-5 ([12]; 320 g/ha): 4 (Herbicidal rate of 70% or more and less than 90%)
effect on Italian ryegrass (K) ([13]; 320 g/ha): 4 (Herbicidal rate of 70% or more and less than 90%)
effect on velvetleaf (M) ([14]; 320 g/ha): 5 (Herbicidal rate of 90% or more (almost completely withered))
herbicidal effect rating, R: persian speedwell ([15]; 320 g/ha): 5 (Herbicidal rate of 90% or more (almost completely withered))

CCCC(=O)Oc1c(C)nn(C)c(=O)c1-c1c(-c2ccccc2OCC)sc2ccc(F)cc12 [2-029]
herbicidal effect rating, A: late watergrass ([1]; AAH 266 g/ha): 3 (Herbicidal rate of 40% or more and less than 70%)
herbicidal effect on H (barnyard grass), rating 0-5 ([2]; 266 g/ha): 5 (Herbicidal rate of 90% or more (almost completely withered))
herbicidal effect rating, F: southern crabgrass ([3]; 266 g/ha): 3 (Herbicidal rate of 40% or more and less than 70%)
effect on lambsquarters (O) ([4]; 266 g/ha): 3 (Herbicidal rate of 40% or more and less than 70%)
herbicidal effect rating, M: velvetleaf ([5]; 266 g/ha): 0 (Herbicidal rate of 5% or less (almost no effect))
Herbicidal effect on A: late watergrass (grade 0-5) ([6]; 266 g/ha applied herbicide): 2 (Herbicidal rate of 20% or more and less than 40%)
herbicidal effect rating, J: blackgrass ([7]; 266 g/ha): 0 (Herbicidal rate of 5% or less (almost no effect))
herbicidal effect rating, O: lambsquarters ([8]; 266 g/ha): 4 (Herbicidal rate of 70% or more and less than 90%)
herbicidal effect rating, K: Italian ryegrass ([9]; 266 g/ha): 0 (Herbicidal rate of 5% or less (almost no effect))
effect on blackgrass (J) ([10]; 266 g/ha): 1 (Herbicidal rate of 5% or more and less than 20%)
herbicidal effect rating, L: windgrass ([11]; 266 g/ha): 0 (Herbicidal rate of 5% or less (almost no effect))
herbicidal effect on D (Chinese sprangletop), rating 0-5 ([12]; 266 g/ha): 3 (Herbicidal rate of 40% or more and less than 70%)
effect on Italian ryegrass (K) ([13]; 266 g/ha): 2 (Herbicidal rate of 20% or more and less than 40%)
effect on velvetleaf (M) ([14]; 266 g/ha): 5 (Herbicidal rate of 90% or more (almost completely withered))
herbicidal effect rating, R: persian speedwell ([15]; 266 g/ha): 3 (Herbicidal rate of 40% or more and less than 70%)

CCCOc1ccc(-c2sc3ccc(F)cc3c2-c2c(O)c(C)nn(C)c2=O)cc1 [2-032]
herbicidal effect rating, A: late watergrass ([1]; AAH 320 g/ha): 1 (Herbicidal rate of 5% or more and less than 20%)
herbicidal effect on H (barnyard grass), rating 0-5 ([2]; 320 g/ha): 5 (Herbicidal rate of 90% or more (almost completely withered))
herbicidal effect rating, F: southern crabgrass ([3]; 320 g/ha): 2 (Herbicidal rate of 20% or more and less than 40%)
effect on lambsquarters (O) ([4]; 320 g/ha): 5 (Herbicidal rate of 90% or more (almost completely withered))
herbicidal effect rating, M: velvetleaf ([5]; 320 g/ha): 5 (Herbicidal rate of 90% or more (almost completely withered))
Herbicidal effect on A: late watergrass (grade 0-5) ([6]; 320 g/ha applied herbicide): 4 (Herbicidal rate of 70% or more and less than 90%)
herbicidal effect rating, J: blackgrass ([7]; 320 g/ha): 0 (Herbicidal rate of 5% or less (almost no effect))
herbicidal effect rating, O: lambsquarters ([8]; 320 g/ha): 5 (Herbicidal rate of 90% or more (almost completely withered))
herbicidal effect rating, K: Italian ryegrass ([9]; 320 g/ha): 0 (Herbicidal rate of 5% or less (almost no effect))
effect on blackgrass (J) ([10]; 320 g/ha): 5 (Herbicidal rate of 90% or more (almost completely withered))
herbicidal effect rating, L: windgrass ([11]; 320 g/ha): 0 (Herbicidal rate of 5% or less (almost no effect))
herbicidal effect on D (Chinese sprangletop), rating 0-5 ([12]; 320 g/ha): 3 (Herbicidal rate of 40% or more and less than 70%)
effect on Italian ryegrass (K) ([13]; 320 g/ha): 4 (Herbicidal rate of 70% or more and less than 90%)
effect on velvetleaf (M) ([14]; 320 g/ha): 5 (Herbicidal rate of 90% or more (almost completely withered))
herbicidal effect rating, R: persian speedwell ([15]; 320 g/ha): 5 (Herbicidal rate of 90% or more (almost completely withered))
